# Counter-ions that a name gives are not always drawn.
# Experiments:
# [1] = system: substance P-induced scratching behavior; assay: Inhibitory effect on substance P-induced scratching behavior in mice (MicroAct automatic detection); format: in vivo, mouse; conditions: substance P 250 nmol/site; for Number of scratching behavior (means ± standard error): i.p., counted for 15 minutes
# Description: Substance P-induced scratching behavior in mice which is an intractable pruritus model was induced by the method described in a known document (Togashi et al., European Journal of Pharmacology, 2002, Vol. 435, p. 259 and the like). Further, evaluation of the scratching behavior was objectively carried out by automatic detection using MicroAct (NeuroScience, Inc.) based on the method described in a known document (Hashimoto et al., Allergology International, 2004, Vol. 53, p. 349).
# More particularly, at least five days before the evaluation of drug effect, neodymium magnets (diameter: 1 mm, length: 3 mm) coated with Parafilm were subcutaneously inserted into the insteps of both hind limbs of 5 to 7 week-old male ICR mouse (Japan SLC, Inc.) under isoflurane anesthesia. One or two days before the day of the evaluation of drug effect, the hair of the rostral part of the back of the mouse was shaved with a hair clipper under isoflurane anesthesia. At least one hour before the start of the measurement of the number of scratching behavior, each mouse (6 to 8 weeks old) was individually placed in a chamber for measurement (diameter: 11 cm, height: 18 cm) for acclimation. After the acclimation, substance P (5 mmol/L) or phosphate-buffered saline (hereinafter referred to as PBS) as a solvent thereof was intradermally administered (0.05 mL/site) into the rostral part of the back, and the measurement of the number of scratching behavior was started immediately after the administration. The number of scratching behavior was recorded by amplifying electric current induced by the movement of the magnets inserted in the hind limbs in a round coil surrounding the chamber for measurement. The measurement was carried out under unattended environment, and the evaluation of the drug effect was carried out by using the number of scratching behavior occurred for 15 minutes after the start of the measurement as an index.
# A test compound or a solvent thereof was administered in an amount of 10 mL/kg 30 to 60 minutes before the start of the measurement of the number of scratching behavior. Varenicline tartrate (Tocris Bioscience) was dissolved in PBS and intraperitoneally administered in a dose of 1, 3 or 10 mg/kg 60 minutes before the start of the measurement of the number of scratching behavior. N-(1-azabicyclo[2.2.2]oct-3(R)-yl)-4-chlorobenzamide hydrochloride (PNU-282987) hydrate (Sigma-Aldrich) was dissolved in PBS and intraperitoneally administered in a dose of 0.3 or 1 mg/kg 45 minutes before the start of the measurement of the number of scratching behavior. The compound of Reference Example 1 was dissolved in PBS and intraperitoneally administered in a dose of 0.1 or 0.3 mg/kg 30 minutes before the start of the measurement of the number of scratching behavior. The compound of Reference Example 2 was dissolved in PBS and intraperitoneally administered in a dose of 1, 3, or 10 mg/kg 45 minutes before the start of the measurement of the number of scratching behavior. The compound of Reference Example 3 was dissolved in distilled water and orally administered in a dose of 1, 3, or 10 mg/kg 30 minutes before the start of the measurement of the number of scratching behavior. The compound of Reference Example 4 was dissolved in PBS and intraperitoneally administered in a dose of 1, 3, or 10 mg/kg 45 minutes before the start of the measurement of the number of scratching behavior. The compound of Reference Example 5 was dissolved in PBS and intraperitoneally administered in a dose of 1, 3, or 10 mg/kg 30 minutes before the start of the measurement of the number of scratching behavior. The compound of Reference Example 6 was dissolved in PBS and intraperitoneally administered in a dose of 1, 3, or 10 mg/kg, 30 minutes before the start of the measurement of the number of scratching behavior. […]
# [2] = system: substance P-induced scratching behavior; assay: Effect of nicotinic acetylcholine receptor antagonist (mecamylamine hydrochloride) on inhibition of substance P-induced scratching behavior by varenicline; format: in vivo, mouse; conditions: varenicline tartrate 3 mg/kg + mecamylamine hydrochloride 3 mg/kg, i.p., 60 minutes before; substance P 250 nmol/site
# Experimental: The induction and measurement of the number of substance P-induced scratching behavior were carried out by the same method as described in Example 1.
# Varenicline tartrate (0.3 mg/mL, Tocris Bioscience), mecamylamine hydrochloride (0.3 mg/mL, Tocris Bioscience), a mixed solution of varenicline tartrate and mecamylamine hydrochloride (both 0.3 mg/mL), or PBS which was a solvent thereof, was intraperitoneally administered in an amount of 10 mL/kg 60 minutes before the start of the measurement of the number of scratching behavior.
# With regard to statistical processing, Student's t-test was performed when variances were homogeneity by F-test, and Aspin-Welch test was performed when variances were heterogeneity. A level of significance was set to 5% (two-tailed).
# The vertical axis indicates the number of scratching behavior occurred for 15 minutes (mean±standard error, n=5 to 8). […]
compound,measurement,setting,value
"c1cnc2cc3c(cc2n1)C1CNCC3C1 [Varenicline tartrate, 7,8,9,10-tetrahydro-6H-6,10-methanopyrazino[2,3-h][3]benzazepine, reference compound]",inhibition at 1 mg/kg,"[1]; Mus musculus, ip, 1 mg/kg, read-out: Inhibition rate",15%
same,inhibition at 3 mg/kg,"[1]; Mus musculus, ip, 3 mg/kg, read-out: Inhibition rate",64%
same,inhibition at 10 mg/kg,"[1]; Mus musculus, ip, 10 mg/kg, read-out: Inhibition rate",101%
same,Number of scratching behavior (means ± standard error),[1]; 1 mg/kg,103 ± 19
same,Number of scratching behavior (means ± standard error),[1]; 3 mg/kg,54 ± 7
same,Number of scratching behavior (means ± standard error),[1]; 10 mg/kg,17 ± 3
same,Effect of inhibiting the substance P-induced scratching behavior when used in combination with mecamylamine hydrochloride,[2],completely disappeared

# Reference: patent US20140128606A1, “ANTIPRURITIC AGENT” (Toray Industries, Inc., priority 2011, published 2014)
